In the NIST ThermoML archive (doi:10.1021/je4007184):
± gives the expanded uncertainty stated by the source.

Key:
[1] = 298.15 K; 101.33 kPa; Liquid; Pycnometric method
[2] = Boiling temperature at pressure P; conditions: 101 kPa; Liquid; Ebulliometric method (Recirculating still)
[3] = refractive index (Na D-line) (dimensionless); conditions: 298.15 K; 101.33 kPa; Liquid; Standard Abbe refractometry

mass density [1] [kg/m3] | Boiling temperature at pressure P [2] [°C] | refractive index [3] | Structure (SMILES)
811.04 ± 0.6 | 131.1 ± 0.4 | 1.4155 ± 0.0005 | CC(C)CCO [3-methylbutan-1-ol]
810.12 ± 0.6 | 137.8 ± 0.4 | 1.4078 ± 0.0005 | CCCCCO [pentan-1-ol]
806.57 ± 0.61 | 119.1 ± 0.4 | 1.4048 ± 0.0005 | CCCC(C)O (configuration not stated) [pentan-2-ol]
882.8 ± 0.68 | 101.5 ± 0.4 | 1.3821 ± 0.0005 | CCCOC(C)=O [propyl ethanoate]
